One test addresses T1, hP2X7 (Homo sapiens, UniProt Q99572).
T1 sequence (Q99572 1-595): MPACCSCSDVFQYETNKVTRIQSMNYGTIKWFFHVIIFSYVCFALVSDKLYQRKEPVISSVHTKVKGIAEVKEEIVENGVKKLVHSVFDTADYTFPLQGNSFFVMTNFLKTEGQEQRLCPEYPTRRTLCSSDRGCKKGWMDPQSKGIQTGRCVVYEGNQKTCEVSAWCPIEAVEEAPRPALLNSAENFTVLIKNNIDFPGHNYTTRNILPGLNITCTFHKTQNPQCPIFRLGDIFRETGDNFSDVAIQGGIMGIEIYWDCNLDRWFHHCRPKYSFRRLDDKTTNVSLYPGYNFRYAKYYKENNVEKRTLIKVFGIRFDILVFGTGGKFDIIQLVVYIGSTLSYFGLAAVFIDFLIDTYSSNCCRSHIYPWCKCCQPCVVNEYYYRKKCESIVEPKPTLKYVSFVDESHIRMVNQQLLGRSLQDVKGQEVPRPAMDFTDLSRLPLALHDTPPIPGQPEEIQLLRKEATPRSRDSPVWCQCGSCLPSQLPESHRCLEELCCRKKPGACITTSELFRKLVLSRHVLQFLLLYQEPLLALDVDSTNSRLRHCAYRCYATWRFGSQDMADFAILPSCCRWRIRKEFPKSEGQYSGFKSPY
Nature of the test: Whole-cell patch clamp, ATP-evoked current, transfected HEK293. The test is classed as cell-based. A general note: In patch-clamp work, channel activity is measured electrically.

The next test concerns the target T2, mP2X7 (Mus musculus, UniProt Q9Z1M0).
T2 sequence (Q9Z1M0 1-595): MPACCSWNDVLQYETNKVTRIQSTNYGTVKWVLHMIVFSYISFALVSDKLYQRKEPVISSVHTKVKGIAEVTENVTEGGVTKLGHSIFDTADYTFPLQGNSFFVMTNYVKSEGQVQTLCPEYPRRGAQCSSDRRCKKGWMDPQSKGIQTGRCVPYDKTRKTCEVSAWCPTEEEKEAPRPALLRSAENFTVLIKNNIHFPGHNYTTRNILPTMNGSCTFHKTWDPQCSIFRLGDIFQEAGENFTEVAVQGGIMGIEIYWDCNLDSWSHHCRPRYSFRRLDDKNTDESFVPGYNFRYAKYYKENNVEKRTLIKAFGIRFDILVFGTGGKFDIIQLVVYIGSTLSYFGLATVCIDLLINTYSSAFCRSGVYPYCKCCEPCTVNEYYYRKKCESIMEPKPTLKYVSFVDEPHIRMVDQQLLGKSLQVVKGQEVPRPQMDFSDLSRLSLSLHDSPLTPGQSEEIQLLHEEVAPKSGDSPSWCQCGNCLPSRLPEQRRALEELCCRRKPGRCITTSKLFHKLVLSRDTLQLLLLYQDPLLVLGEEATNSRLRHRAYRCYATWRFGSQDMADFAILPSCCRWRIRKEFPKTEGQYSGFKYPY
The description is as above. It counts as cell-based.

The target of the next test is T3, rP2X7 (Rattus norvegicus, UniProt Q64663).
T3 sequence (Q64663 1-595): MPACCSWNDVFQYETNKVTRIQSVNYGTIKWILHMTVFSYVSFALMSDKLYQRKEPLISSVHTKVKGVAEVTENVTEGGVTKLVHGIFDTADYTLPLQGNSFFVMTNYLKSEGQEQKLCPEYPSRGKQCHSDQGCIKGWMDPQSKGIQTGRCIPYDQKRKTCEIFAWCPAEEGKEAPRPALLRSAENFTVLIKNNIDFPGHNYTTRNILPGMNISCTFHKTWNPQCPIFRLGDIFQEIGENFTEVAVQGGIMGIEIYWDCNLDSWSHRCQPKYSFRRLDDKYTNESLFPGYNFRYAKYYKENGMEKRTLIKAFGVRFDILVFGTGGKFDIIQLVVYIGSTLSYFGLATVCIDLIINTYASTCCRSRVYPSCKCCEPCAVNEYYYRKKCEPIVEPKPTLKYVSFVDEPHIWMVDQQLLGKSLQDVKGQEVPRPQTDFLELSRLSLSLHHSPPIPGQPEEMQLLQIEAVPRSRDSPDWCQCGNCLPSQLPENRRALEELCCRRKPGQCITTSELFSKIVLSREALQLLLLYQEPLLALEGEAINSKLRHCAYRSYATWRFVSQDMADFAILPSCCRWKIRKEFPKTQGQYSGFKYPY
Described as above. The test is classed as cell-based. Conditions: HEK293, read-out: inhibition rate.

Test [1] relates to human P2X7. Conditions: cited from earlier work.
For the next test, the target named is T4, mP2X7 A312V (Mus musculus, UniProt Q9Z1M0, A312V).
T4 sequence (Q9Z1M0 1-595 A312V): T2 sequence (Q9Z1M0 1-595) with A312V
In words: Whole-cell patch clamp, mP2X7 mutant. The test is classed as cell-based. Conditions: read-out: EC50 (apparent affinity for ATP); m7A312V.

A further test concerns the target hP2X7 I68F (Homo sapiens, UniProt Q99572, I68F). Nature of the test: Whole-cell patch clamp, hP2X7 mutant. It counts as cell-based.
In another test the target is hP2X7 F88A (Homo sapiens, UniProt Q99572, F88A). Nature of the test: Whole-cell patch clamp, hP2X7 mutant. The test is classed as cell-based. Conditions: h7F88A, 30 μM (Fig. S3b).
The target of the next test is hP2X7 F103A (Homo sapiens, UniProt Q99572, F103A). In words: Whole-cell patch clamp, hP2X7 mutant. The test is classed as cell-based. Conditions: h7F103A, 30 μM (Fig. S3b).
Another test has as its target hP2X7 M140E (Homo sapiens, UniProt Q99572, M140E). In words: Whole-cell patch clamp, hP2X7 mutant. It counts as cell-based. The following applies: h7M140E, 30 μM (Fig. S3b).
For another test, the target named is hP2X7 Y295F (Homo sapiens, UniProt Q99572, Y295F). Nature of the test: Whole-cell patch clamp, hP2X7 mutant. It counts as cell-based.
Another test addresses hP2X7 E305F (Homo sapiens, UniProt Q99572, E305F). In words: Whole-cell patch clamp, hP2X7 mutant. It counts as cell-based.
For a further test, the target named is hP2X7 V312A (Homo sapiens, UniProt Q99572, V312A). In words: Whole-cell patch clamp, hP2X7 mutant. The test is classed as cell-based.
Another test deals with hP2X7 E305C (Homo sapiens, UniProt Q99572, E305C). Nature of the test: Whole-cell patch clamp, hP2X7 mutant. The following applies: h7E305C, 30 μM (Fig. S3b). The test is classed as cell-based.
For a further test, the system named is human P2X3. Conditions: read-out: IC50 (half-maximal inhibitory concentration); hP2X3; cited from earlier work.
For test [2], the system named is human P2X7. Nature of the test: Literature IC50. The following applies: from Table S1 values.
The next test deals with human P2X4. Conditions: cited from earlier work.
[3] abbreviates: HEK293, read-out: inhibition rate.

Changes are numbered by the printed parent chain. A value given as a limit tells only on which side of the number the result lay.

A word on the inhibition: it is the relative decrease from the control value, in per cent. What is called EC50 is the concentration that produces a half-maximal response.

hP2X7 V312A, sequence (Q99572 whole entry V312A): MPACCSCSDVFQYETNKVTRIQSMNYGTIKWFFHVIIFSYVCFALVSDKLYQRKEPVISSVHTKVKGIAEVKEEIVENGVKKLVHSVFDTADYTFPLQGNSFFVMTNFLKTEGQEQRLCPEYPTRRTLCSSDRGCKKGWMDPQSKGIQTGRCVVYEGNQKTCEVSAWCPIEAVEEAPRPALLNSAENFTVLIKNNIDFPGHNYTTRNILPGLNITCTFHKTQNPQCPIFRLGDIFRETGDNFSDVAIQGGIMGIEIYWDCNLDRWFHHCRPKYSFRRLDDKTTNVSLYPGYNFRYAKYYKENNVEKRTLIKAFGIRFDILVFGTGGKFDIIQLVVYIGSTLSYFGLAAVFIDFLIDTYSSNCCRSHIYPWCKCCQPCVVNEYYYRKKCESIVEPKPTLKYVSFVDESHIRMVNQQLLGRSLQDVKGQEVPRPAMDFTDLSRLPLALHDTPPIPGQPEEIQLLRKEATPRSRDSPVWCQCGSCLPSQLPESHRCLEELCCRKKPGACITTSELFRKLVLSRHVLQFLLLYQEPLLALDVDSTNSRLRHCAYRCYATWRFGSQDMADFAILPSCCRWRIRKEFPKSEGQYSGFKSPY
hP2X7 I68F, sequence (Q99572 whole entry I68F): as the sequence (Q99572 whole entry V312A) above, with I68F, A312V counted along it
hP2X7 Y295F, sequence (Q99572 whole entry Y295F): as the sequence (Q99572 whole entry V312A) above, with Y295F, A312V counted along it
hP2X7 E305F, sequence (Q99572 whole entry E305F): as the sequence (Q99572 whole entry V312A) above, with E305F, A312V counted along it
hP2X7 F88A, sequence (Q99572 whole entry F88A): as the sequence (Q99572 whole entry V312A) above, with F88A, A312V counted along it
hP2X7 M140E, sequence (Q99572 whole entry M140E): as the sequence (Q99572 whole entry V312A) above, with M140E, A312V counted along it
hP2X7 E305C, sequence (Q99572 whole entry E305C): as the sequence (Q99572 whole entry V312A) above, with E305C, A312V counted along it
hP2X7 F103A, sequence (Q99572 whole entry F103A): as the sequence (Q99572 whole entry V312A) above, with F103A, A312V counted along it

On to `C=CC[C@H]1c2ccc(OC)c(OC)c2CN2CCc3cc4c(cc3[C@@H]12)OCO4` [PSFL1190, (13S,13aR)-13-allyl-9,10-dimethoxy-5,8,13,13a-tetrahydro-6H-1,3dioxolo[4,5-g] isoquinolino[3,2-a]isoquinoline], for which, on hP2X7, the IC50 stood at 12.6 ± 2.9 µM; the “fold difference in affinity for hP2X7 between PSFL1191 and PSFL1190” value is “more than 50 fold”. At mP2X7 (setting [3]), the inhibition at 30 µM is 11.8 ± 6.1%. Also, on rP2X7, the inhibition at 30 µM is 12.1 ± 2.4%.
Take `COc1ccc(CC(=O)NC(NC(=NC#N)Nc2cccc3ncccc23)C(C)(C)C)cc1OC` (centres unmarked) [A740003, N-(1-{[(cyanoimino)(5-quinolinylamino)methyl]amino}-2,2-dimethylpropyl)-2-(3,4-dimethoxyphenyl)acetamide]: the IC50 in the test on human P2X7 [1] (P2X7) is 0.0437 µM. The “fold difference in IC50 between hP2X7 and mP2X7” value in the test with human P2X7 [1] is 37 fold.
`Nc1ncnc2c1ncn2[C@@H]1O[C@H](COP(=O)(O)OP(=O)(O)OP(=O)(O)O)[C@@H](O)[C@H]1O` [ATP, reference compound]: the half-maximal effective concentration (EC50) at mP2X7 (read-out: EC50 (apparent affinity for ATP), m7WT) turned out to be 782 ± 71 µM; on mP2X7 A312V, 1420 ± 170 µM.
For `COc1ccc2cc3[n+](cc2c1OC)CCc1cc2c(cc1-3)OCO2` [berberine], the IC50 against hP2X7 is 12.7 ± 0.9 µM; against hP2X7 I68F, 39.9 ± 5.8 µM; on hP2X7 Y295F, 46.6 ± 7.8 µM; against hP2X7 E305F, 87.7 ± 4.3 µM; against hP2X7 V312A, more than 300 µM. The inhibition at 300 µM amounted to 8.02 ± 2.7% at mP2X7 (setting [3]) and 19.2 ± 4.3% on rP2X7. For the same compound, the “inhibitory effect vs h7WT” value was “notably attenuated” on hP2X7 I68F (h7I68F, 30 μM (Fig. S3b)); “notably attenuated” on hP2X7 F88A; “notably attenuated” at hP2X7 F103A; “notably attenuated” against hP2X7 M140E; “notably attenuated” at hP2X7 Y295F (h7Y295F, 30 μM (Fig. S3b)); “notably attenuated” at hP2X7 E305F (h7E305F, 30 μM (Fig. S3b)). The “inhibitory effect vs h7WT” value against hP2X7 V312A (h7V312A, 30 μM (Fig. S3b)) is “notably attenuated”; against hP2X7 E305C it was “notably attenuated”.
Turning to `CNC(=O)c1cc(F)c(-c2nc3cc(C)ccn3c2C[C@H]2CN(C(=O)OC)CCO2)c(F)c1` [BLU-5937], in the test with human P2X3, the IC50 is 0.025 µM.
As for `O=C(CC12CC3CC(CC(C3)C1)C2)Nc1cccc2nc(NCCNCCO)ccc12` [AZ10606120], in the test with human P2X7 [2], the “apparent affinity (IC50) for hP2X7, fold higher than for mP2X7” value is recorded as 500 fold and the “apparent affinity (IC50) for hP2X7, fold higher than for rP2X7” value is 1587 fold.
Consider `CC(C)c1cc(Br)c(NC(=O)Nc2cccnc2)c(Br)c1` [BX430], for which the IC50 in the test with human P2X4 (P2X4) is 0.54 µM. Also, in the test with human P2X4, the “IC50 for hP2X4, fold lower than for mP2X4 and rP2X4” value is “more than 20 fold”; the “fold difference between hP2X4 and mP2X4” value is given as more than 20 fold.
